Literature values as cited in patent publication EP1214078B1, “FORMULATIONS FOR PARENTERAL USE OF ES[…] AND AMINO ACIDS” (priority 1999, dated 2001).

Details: patients, slow intravenous injection or bolus, 300 mg/day

Compound: C[C@]12CC[C@@H]3c4ccc(OC(=O)N(CCCl)CCCl)cc4CC[C@H]3[C@@H]1CC[C@@H]2OP(=O)(O)O [estramustine phosphate, Estramustine phosphate]
- side effects at the peripheral intravenous injection sites: thrombophlebitis and local irritations
